In the CheMixHub viscosity set:

Test: xn = mol fraction of the nth substance listed

C1CCC2CCCCC2C1 (centres undefined) + OCC1CC1
viscosity [mPa·s], 101 kPa
Settings	x2 = 0.0988	x2 = 0.2017	x2 = 0.2994	x2 = 0.4008	x2 = 0.5004	x2 = 0.6011	x2 = 0.7007	x2 = 0.8009	x2 = 0.8994
293.15 K	2.377	2.408	2.471	2.554	2.676	2.846	3.024	3.244	3.581
298.15 K	2.149	2.17	2.217	2.282	2.378	2.517	2.662	2.84	3.12
303.15 K	1.952	1.965	2.001	2.05	2.126	2.24	2.356	2.502	2.736
308.15 K	1.781	1.787	1.814	1.85	1.91	2.003	2.097	2.215	2.411
313.15 K	1.63	1.633	1.651	1.678	1.724	1.799	1.874	1.971	2.135
318.15 K	1.499	1.497	1.509	1.527	1.562	1.623	1.683	1.762	1.899
323.15 K	1.382	1.358	1.383	1.396	1.421	1.47	1.518	1.581	1.697

CC12CC3CC(C)(C1)CC(C)(C3)C2 + OCC1CCCCC1
Settings	viscosity [mPa·s]
303.15 K, 100 kPa, x2 = 0.801	10.65

CCCCCO + OCCO
293.15 K, 101.33 kPa
Settings	viscosity [mPa·s]
x2 = 0.0857	4.274
x2 = 0.1963	4.916
x2 = 0.2991	5.66
x2 = 0.3697	6.324
x2 = 0.4694	7.484
x2 = 0.5395	8.676
x2 = 0.5964	9.655
x2 = 0.713	12.32
x2 = 0.7884	14.03
x2 = 0.8506	15.9
x2 = 0.9407	18.94

O=[N+]([O-])c1ccccc1 + OCCOCCO
viscosity [mPa·s], 101 kPa
Settings	298.15 K	308.15 K
x2 = 0.0441	1.987	1.691
x2 = 0.1493	2.565	2.115
x2 = 0.2505	3.312	2.642
x2 = 0.3502	4.303	3.31
x2 = 0.4438	5.55	4.117
x2 = 0.4934	6.373	4.632
x2 = 0.5487	7.457	5.293
x2 = 0.6506	10.04	6.804
x2 = 0.751	13.58	8.774
x2 = 0.8498	18.47	11.34
x2 = 0.9429	24.89	14.54

O=[N+]([O-])c1ccccc1 + OCCOCCOCCO
viscosity [mPa·s], 101 kPa
Settings	298.15 K	308.15 K
x2 = 0.0465	2.086	1.759
x2 = 0.1495	2.91	2.342
x2 = 0.2501	3.999	3.087
x2 = 0.3505	5.455	4.049
x2 = 0.4432	7.222	5.184
x2 = 0.4957	8.443	5.954
x2 = 0.5486	9.864	6.838
x2 = 0.6486	13.17	8.857
x2 = 0.7501	17.53	11.47
x2 = 0.8489	23	14.69
x2 = 0.94	29.37	18.4
